Measurements: PubChem BioAssay (NCI)
Values joined by “and” are separate entries in the source; they are usually repeats but may differ in a detail not shown here. Identical values can stand only once.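 Where inhibition never reached the appropriate level, the endpoint shown equals the highest concentration tested. Otherwise, values were interpolated linearly from a five-concentration, 48-hour dose response in 96-well plates. GI50 = concentration required for 50% inhibition of growth. At the TGI there is no net growth.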

Key:
Assay in all cases: inhibition of tumour cell growth, NCI panel, 48 h
K-562 leukemia = tested on: K-562 leukemia
HCT-116 colon = tested on: HCT-116 colon
SNB-75 CNS = tested on: SNB-75 CNS
OVCAR-8 ovarian = tested on: OVCAR-8 ovarian
RPMI-8226 leukemia = tested on: RPMI-8226 leukemia
SF-295 CNS = tested on: SF-295 CNS
SK-MEL-28 melanoma = tested on: SK-MEL-28 melanoma
NCI-H460 lung = tested on: NCI-H460 lung
T-47D breast = tested on: T-47D breast
M14 melanoma = tested on: M14 melanoma

Compound	GI50 (K-562 leukemia)	TGI (K-562 leukemia)	GI50 (HCT-116 colon)	TGI (HCT-116 colon)	GI50 (SNB-75 CNS)	TGI (SNB-75 CNS)	GI50 (OVCAR-8 ovarian)	TGI (OVCAR-8 ovarian)	GI50 (RPMI-8226 leukemia)	TGI (RPMI-8226 leukemia)	GI50 (SF-295 CNS)	TGI (SF-295 CNS)	GI50 (SK-MEL-28 melanoma)	TGI (SK-MEL-28 melanoma)	GI50 (NCI-H460 lung)	TGI (NCI-H460 lung)	GI50 (T-47D breast)	TGI (T-47D breast)	GI50 (M14 melanoma)	TGI (M14 melanoma)
CS(=O)(=O)c1ccc(C(F)(F)F)cc1NC(=O)Nc1cnc(Oc2ccc(-c3cc(Cl)cnc3N)cc2)nc1	2.23 µM	5.51 µM	2.17 µM	4.82 µM	1.11 µM	11.5 µM	2.86 µM	> 29 µM	2.33 µM	6.53 µM	1.99 µM	5.71 µM	2.21 µM	5.62 µM	2.07 µM	4.42 µM	2.05 µM	7.7 µM	2.02 µM	4.8 µM
COCCOC(C)C(/C=N/NC(N)=S)=N/NC(N)=S (configuration not stated)	0.0574 µM	> 100 µM	0.0189 µM	> 100 µM	> 100 µM	> 100 µM	> 100 µM	> 100 µM	0.0725 µM	> 100 µM	–	> 100 µM	> 100 µM	> 100 µM	> 100 µM	> 100 µM	–	> 100 µM	0.0643 µM	> 100 µM
N#CC1=C(N)Oc2c(sc3c(F)cccc23)C1c1ccc([N+](=O)[O-])cc1 (configuration not stated)	0.0494 µM	1.79 µM	0.169 µM	1.33 µM	0.115 µM	0.445 µM	0.258 µM	1.78 µM	0.215 µM	1.45 µM	0.184 µM	1.11 µM	0.34 µM	1.97 µM	0.253 µM	1.17 µM	0.254 µM	2.86 µM	0.111 µM	0.645 µM
CCOC(=O)c1c(C)c2c(n1C)CSc1cc(S(=O)(=O)c3ccccc3)c(=O)[nH]c1-2	14.6 µM	> 100 µM	22.7 µM	86.9 µM	42.7 µM	> 100 µM	36.7 µM	> 100 µM	14.8 µM	> 100 µM	14 µM	61.9 µM	37.2 µM	> 100 µM	25.7 µM	> 100 µM	10.5 µM	74.7 µM	27.9 µM	77.7 µM
N#Cc1c(NC(=O)CCC(=O)O)ccc2ccccc12	–	> 100 µM	–	> 100 µM	–	> 100 µM	–	> 100 µM	–	> 100 µM	–	> 100 µM	–	> 100 µM	–	> 100 µM	–	> 100 µM	–	> 100 µM
C=CCSc1n[nH]c(-c2cccs2)n1	> 100 µM	> 100 µM	> 100 µM	> 100 µM	> 100 µM	> 100 µM	> 100 µM	> 100 µM	> 100 µM	> 100 µM	> 100 µM	> 100 µM	> 100 µM	> 100 µM	> 100 µM	> 100 µM	> 100 µM	> 100 µM	> 100 µM	> 100 µM
CCC(=S)N(C)O	–	> 79.8 µM	–	30.9 µM	–	> 95.4 µM	–	> 97.1 µM	–	21.8 µM	–	> 100 µM	–	> 100 µM	–	70.3 µM	–	> 100 µM	–	> 100 µM
O=C(O)[C@@H]1C[C@@H](O)CN1	–	> 100 µM	–	> 100 µM	–	> 100 µM	–	> 100 µM	–	> 100 µM	–	> 100 µM	–	> 100 µM	–	> 100 µM	–	> 100 µM	–	> 100 µM
O=C1C(Nc2ccccn2)=C(I)C(=O)c2ncccc21	0.367 µM	4.29 µM	0.372 µM	1.61 µM	1.01 µM	2.23 µM	1.29 µM	5.87 µM	1.19 µM	3.73 µM	1.19 µM	2.56 µM	1.68 µM	3.18 µM	0.295 µM	1.1 µM	1.36 µM	3.82 µM	1.18 µM	2.6 µM
C[C@]12CC[C@@H]3c4ccc(O)cc4CC[C@H]3[C@@H]1CC[C@@H]2NS(=O)(=O)c1cccc(Br)c1	3.59 µM	14.8 µM	3.03 µM	10.2 µM	2.9 µM	13.5 µM	3.98 µM	16.7 µM	3.41 µM	17.3 µM	3.19 µM	11.7 µM	4.21 µM	15.9 µM	2.53 µM	6.67 µM	5.05 µM	17.6 µM	3.69 µM	13.7 µM
O=C(Nc1ccc(-n2cc(-c3ccncc3)c(-c3ccc(Cl)c(O)c3)n2)cc1)c1cc(Cl)cc(Cl)c1	1.11 µM	> 100 µM	2.69 µM	> 100 µM	2.79 µM	> 100 µM	14.4 µM	> 100 µM	0.793 µM	4.14 µM	0.738 µM	2.79 µM	2.42 µM	> 30.8 µM	4.03 µM	> 100 µM	> 100 µM	> 100 µM	1.95 µM	6.67 µM
NC(N)=NC(N)=NCCc1ccccc1	66.6 µM and 30.8 µM	> 100 µM	92.5 µM and 36.3 µM	> 100 µM	> 100 µM and 81.2 µM	> 100 µM	> 100 µM	> 100 µM	11.1 µM and 7.54 µM	> 100 µM	53.2 µM and > 100 µM	> 100 µM	> 100 µM	> 100 µM	> 100 µM	> 100 µM	84.8 µM and > 100 µM	> 100 µM	> 100 µM	> 100 µM
O=c1cccc(C#CCCCCOC2CCCO2)o1 (configuration not stated)	52.3 µM	> 100 µM	6.39 µM	> 23.2 µM	11.4 µM	> 21.4 µM	14.2 µM	> 80.7 µM	2.93 µM	63.7 µM	18.4 µM	> 41.4 µM	23.9 µM	> 56.8 µM	6.81 µM	> 100 µM	22.7 µM	> 48.8 µM	9.49 µM	> 27.9 µM
COc1cc2cc(C(=O)O)[nH]c2cc1OCc1ccccc1	> 100 µM	> 100 µM	> 100 µM	> 100 µM	> 100 µM	> 100 µM	> 100 µM	> 100 µM	> 100 µM	> 100 µM	> 100 µM	> 100 µM	53.5 µM	> 100 µM	> 100 µM	> 100 µM	> 100 µM	> 100 µM	> 100 µM	> 100 µM
c1ccc(-c2cc(-c3cc(-c4ccccn4)[nH]n3)n[nH]2)nc1	–	> 100 µM	–	> 100 µM	–	> 100 µM	–	> 100 µM	–	> 100 µM	–	> 100 µM	–	> 100 µM	–	> 100 µM	–	> 100 µM	–	> 100 µM
O=C=Nc1ccc(Cc2ccc(N=C=O)cc2)cc1 (tested in a mixture with another compound)	12.3 µg/mL	> 25 µg/mL	> 25 µg/mL	> 25 µg/mL	> 25 µg/mL	> 25 µg/mL	> 25 µg/mL	> 25 µg/mL	> 25 µg/mL	> 25 µg/mL	> 25 µg/mL	> 25 µg/mL	> 25 µg/mL	> 25 µg/mL	> 25 µg/mL	> 25 µg/mL	> 25 µg/mL	> 25 µg/mL	> 25 µg/mL	> 25 µg/mL
Nc1cc(C(F)F)c(-c2nc(N3[C@@H]4CC[C@H]3COC4)nc(N3[C@@H]4CC[C@H]3COC4)n2)cn1	0.673 µM	> 100 µM	0.769 µM	> 100 µM	0.06 µM	0.793 µM	0.465 µM	> 100 µM	0.237 µM	–	0.19 µM	1.78 µM	0.203 µM	2.92 µM	0.306 µM	> 100 µM	0.0533 µM	0.41 µM	0.295 µM	23.9 µM
COC(=O)/C(=C/N1CCN(C(=O)c2ccco2)C1=S)C(C)=O	10.2 µM	> 100 µM	7.42 µM	24.2 µM	21 µM	> 100 µM	27.8 µM	88.5 µM	5.49 µM	> 100 µM	18.6 µM	83.8 µM	9.08 µM	52.6 µM	2.19 µM	5.88 µM	6.02 µM	29.8 µM	10.7 µM	24.4 µM
CC(=O)N1c2ccccc2C23CCN4CC5=CCOC(O)C(C5CC42)C13 (configuration not stated)	–	> 100 µM	–	> 100 µM	–	> 100 µM	–	> 100 µM	–	> 100 µM	–	> 100 µM	–	> 100 µM	–	> 100 µM	–	> 100 µM	–	> 100 µM
Cc1oc2c(c1C(=O)c1ccccc1)C(=O)c1ccccc1C2=O	–	5.89 µM	–	8.76 µM	–	13.6 µM	–	18.6 µM	–	23.8 µM	–	22.1 µM	–	24.3 µM	–	34.2 µM	–	7.04 µM	–	10.1 µM
CN(C)CCCC1(c2ccc(F)cc2)OCc2cc(-c3ccc4cc[nH]c4c3)ccc21 (configuration not stated)	1.93 µM	4.08 µM	1.88 µM	3.57 µM	1.35 µM	3.54 µM	3.32 µM	13.8 µM	2.5 µM	6.04 µM	1.79 µM	3.31 µM	1.8 µM	3.36 µM	1.79 µM	3.49 µM	2.01 µM	5.17 µM	1.88 µM	3.82 µM
O=C(N/N=C/c1cc2ccccc2c2ccccc12)c1cc(O)c(O)c(O)c1	3.57 µM	51 µM	3.17 µM	12.4 µM	2.1 µM	14.3 µM	3.72 µM	15.6 µM	7.47 µM	46.1 µM	14.9 µM	32.1 µM	3.57 µM	15.1 µM	3.8 µM	18 µM	2.23 µM	7.24 µM	4.34 µM	18.2 µM
O=S(=O)(Nc1ccc(Cl)c(C(F)(F)F)c1)c1ccc(-c2cnc(C3CC3)o2)cc1	0.117 µM	> 100 µM	0.187 µM	4.14 µM	0.125 µM	1.72 µM	1.54 µM	> 36.2 µM	1.35 µM	5.64 µM	0.131 µM	2.12 µM	1.17 µM	5.79 µM	0.102 µM	10 µM	0.289 µM	8.92 µM	0.276 µM	4.68 µM
O=[N+]([O-])c1ccc(N(CCO)CCO)c2c1no[n+]2[O-]	1.58 µM	4.65 µM	1.1 µM	3.03 µM	0.961 µM	5.47 µM	1.37 µM	7.02 µM	1.22 µM	4.08 µM	0.803 µM	3.38 µM	1.98 µM	5.66 µM	0.645 µM	2.72 µM	1.36 µM	5.46 µM	1.22 µM	2.76 µM
O=C(NCCNCCO)c1ccc2oc3cc4ccccc4c(=O)n3c2c1	14.9 µM	> 50 µM	8.42 µM	19.8 µM	15.2 µM	47.5 µM	8.33 µM	25.5 µM	12.5 µM	35.6 µM	14.8 µM	> 50 µM	22.8 µM	> 50 µM	7.08 µM	15.4 µM	10.2 µM	27.4 µM	8.6 µM	16.7 µM
CCN(C)S(=O)(=O)Nc1cccc(Nc2ncnc3cc(NC(=O)CCl)ccc23)c1Cl	1.1 µM	> 25 µM	1.07 µM	5.04 µM	3.36 µM	7.67 µM	5.18 µM	17.6 µM	1.21 µM	5.42 µM	3.5 µM	7.4 µM	3.92 µM	15.8 µM	3.57 µM	8.6 µM	5.01 µM	13.2 µM	1.77 µM	7.34 µM
Cc1ccc(NC2=C(Cl)C(=O)c3nc(C)ccc3C2=O)cc1	0.702 µM	> 100 µM	1.32 µM	2.68 µM	1.81 µM	3.72 µM	1.47 µM	3.14 µM	1.41 µM	4.2 µM	1.55 µM	2.95 µM	1.93 µM	3.43 µM	1.69 µM	4.57 µM	1.08 µM	3.3 µM	1.67 µM	3.22 µM
